From patent US7771977B2, “Alkane polyol dehydrogenase” (National University Corporation Nara Institute of Science …, priority 2006, dated 2010) come the findings set out here.

The test system of series [1] is alkane polyol dehydrogenase (purified enzyme). The format is biochemical, Pichia ofunaensis. Conditions: purified enzyme; substrate 100 mM; 2 mM NAD+; pH 8.0; 25° C. Here is the method:
The reaction solutions were prepared using plural substrates with varied concentrations. Each solution contained a substrate, 2 mM NAD^+, and an enzyme, and was allowed to react in a 100 mM potassium phosphate buffer solution (pH 8.0) at 25° C. Then, changes in absorbance (molar absorption coefficient 6,220 M^−1·cm^−1) at 340 nm due to the NADH formation were measured. 1 U is defined as an enzyme amount for catalyzing 1 μmol NADH formation per minute.
The alkane polyol dehydrogenase obtained in Example 1 was utilized to measure the enzyme activities in the following manner.
1 U was defined as the amount of enzyme that catalyzes the formation of 1 μmol of NADH per minute.
Measurement was performed in the same manner as in the activity measurements described earlier in 4-1.
Such activity was measured by causing a reaction mixture containing 5 mM (R)-1,2-octanediol, 2 mM NAD^+ and enzyme to react in a 100 mM potassium phosphate buffer solution (pH 8.0) at 25° C., then observing the change, due to NADH formation, of absorbance (molecular absorption coefficient 6,220 M^−1 ·cm^−1) at 340 nm. 1 U was defined as the amount of enzyme that catalyzes the formation of 1 μmol of NADH per minute.

Series [2] has as its system Pichia ofunaensis AKU4328 cells. Put plainly: Glycerol dehydrogenation activity of glycerol-induced Pichia ofunaensis cells. The format is biochemical. An excerpt: Pichia ofunaensis AKU4328 was pre-cultured in medium containing 4 g/L of ammonium chloride, 1 g/L of phosphoric acid 2 hydrogen 1 potassium, 1 g/L of phosphoric acid 1 hydrogen 2 potassium, 0.5 g/L of magnesium sulfate 7 hydrate, 1 g/L of yeast extract, and 1% glucose. Ten hours after the initiation of the main culture in induction medium consisting of a basal medium with 1% glycerol, the cells were harvested. Since the specific activity of glycerol was 3.6 U/mg (protein), it was confirmed that the same protein as the purified enzyme obtained in Example 1 was expressed by 7%.
In relation to the measurement of the enzyme activity, a reaction mixture containing a […] ammonium chloride/ammonia buffer (pH 9.0), 100 mM glycerol, 2.0 mM NAD^+ and an enzyme solution was subjected to a reaction at 25° C.; subsequently, the change, due to NADH formation, of absorbance (molecular absorption coefficient 6,220 M^−1 ·cm^−1) at 340 nm was measured. 1 U refers to the amount of enzyme that catalyzes the formation of 1 μmol of NADH per minute. […]
The activity at this time was measured by causing a reaction mixture containing a 100 mM ammonium chloride/ammonia buffer (pH 9.0), 100 mM glycerol, 2.0 mM NAD^+ and an enzyme solution to react at 25° C., then observing the change, due to NADH formation, of absorbance (molecular absorption coefficient 6,220 M^−1·cm^−1) at 340 nm. […]

The nature of series [3]: Enzyme activity of purification fractions with 100 mM glycerol. Type of series: biochemical, Pichia ofunaensis. The note with it: 2 mM NAD+, pH 8.0, 25° C., purification step. Here is the method: The entire purification process was performed at 4° C., unless otherwise indicated. The cells (20 g wet cell weight) prepared as above in 1-1, were suspended in buffer solution A (100 mM potassium phosphate buffer solution (pH 7.0) and 1 mM dithiothreitol (hereinafter simply referred to as DTT)). The resulting suspension was mixed with 100 ml of glass beads, and disrupted with a bead beater (produced by BioSpec, Bartlesville, USA).
The obtained cell extract was allowed to adsorb to a DEAE-cellulose column (diameter 4.0 cm×height 3.5 cm, produced by Wako Pure Chemical Ind. Ltd., Osaka) that was pre-equilibrated with buffer solution A. Thereafter, the gradient of 0-1 M potassium chloride was applied to buffer solution A to elute protein at a flow rate of 1 ml/min.
The eluted active fractions were collected, and dialyzed against buffer solution A containing 40% saturated ammonium sulfate. […]
In connection with the enzyme activity, a reaction mixture containing 100 mM glycerol, 2 mM NAD^+ and enzyme was allowed to react in a 100 mM potassium phosphate buffer solution (pH 8.0) at 25° C.; subsequently, the change, due to NADH formation, of absorbance (molar absorption coefficient 6,220 M^−1·cm^−1) at 340 nm was measured and analyzed. […]

Regarding `OCC(O)CO` [Glycerol], in series [1], the “Oxidative Activity” value stood at 39.1 U/mg. Besides, the “specific activity of the cells against glycerol” value in series [2] (1% glycerol induction, 100 mM glycerol, 2.0 mM NAD+, pH 9.0, 25° C.) is 3.6 U/mg (protein). For the same molecule, the “glycerol dehydrogenation activity per 1 kg of wet cell weight” value in series [2] (per 1 kg wet cell weight) was 1,300,000 U.

B1: Superdex 200: purified alkane polyol dehydrogenase of Pichia ofunaensis (SEQ ID NO: 1) after Superdex 200 gel filtration (protein, listed as Pichia ofunaensis)
chain: MKGLLYYKTGDIRYSEDVEEPEILSSHDVKIRVKFCGICGTDLKEYTYEGGPLFLPKPGSSDKISGLELPLCPGHEFCGVVEEVGESVTRVKPGDRVAVEATTHCSDAVHYGVHDMELCVACKNGSPNCCTHLSFCGLGGASGGFAEKVVYGEEHMLKLPDSIPFDIGALIEPLAVAWHAVECAKFKPGSTALVLGGGPIGLATILALQGHQAGRIVCSEPACIRREYAAKFGAEVFDPSQHDDVIHELKALLPENGGFDASFDCSGVPQTFTTSIEALAPGGMAVNVAIWGDHAIDFGAMCLTYQEKTCTGSMCYTVKDFEEVINALDKGLISISKARLMITGKVNLKDGVELGFKQLIEHKETNIKILVTPDEV
On to B1, for which, in series [3], the “Specific Activity” value was determined as 51 U/mg.
